From patent US20260022143A1, “Cyclic Peptide Inhibitors of IL-23” (JANSSEN PHARMACEUTICA NV, priority 2022, published 2026)
pIC50: −log10 of the molar value. Starred links: 1 amine or outer side, 2 acyl side, 3 side chain; linkers in the order of their positions; H or OH if unused. Positions of bridges follow the written chain, without caps; N, C: chain ends. Non-standard residues stand in square brackets, D forms with d. Residues, ends and D or L forms follow the SMILES beside them. *: point of attachment. Me3N+(CH2)2O(CH2)2O(CH2)2CO = C[N+](C)(C)CCOCCOCCC(=O)*; X39 = NCCc1cn(-c2ccc(C[C@H](N[*:1])C(=O)[*:2])cc2)nn1; Trp(7-Me) = Cc1cccc2c(C[C@H](N)C(=O)O)c[nH]c12; Abu(4-yl) = O=C([C@H](CC[*:3])N[*:1])[*:2]; Lys(Me3) = C[N+](C)(C)CCCC[C@H](N)C(=O)O; 2Nal = N[C@@H](Cc1ccc2ccccc2c1)C(=O)O; 3Pal = N[C@@H](Cc1cccnc1)C(=O)O; Lys(Me) = CNCCCC[C@H](N)C(=O)O; Pen = CC(C)(S)[C@H](N)C(=O)O; αMeC = C[C@](N)(CS)C(=O)O; Thp = NC1(C(=O)O)CCOCC1; X3 = C[N+](C)(C)CCCCC*; Sar = CNCC(=O)O

Experiments:
[1] = Exposed Polar Surface Area (EPSA); type: physicochemical; settings: SFC on Chirex 3014 column; sample 1 mM DMSO stock; read-out: EPSA
Summary of the method: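 Polarity measured by SFC on a Chirex 3014 column (35 °C, 4 mL/min) with methanol/ammonium formate in CO2 as gradient eluent. Retention times were normalised to EPSA (Å^2) against eight reference compounds.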

[2] = biological target: T1, IL-23R (Homo sapiens, UniProt Q5VWK5); experiment: IL23R Reporter Assay; type: cell-based; settings: HEK293 cells containing IL-23R, IL-12RP1 and STAT-inducible firefly luciferase reporter; 10 ng/mL IL-23 (EC90); 5 h at 37° C.; read-out: IL23R Reporter Assay
T1 construct: host or cells: HEK293
T1 sequence (Q5VWK5 24-629): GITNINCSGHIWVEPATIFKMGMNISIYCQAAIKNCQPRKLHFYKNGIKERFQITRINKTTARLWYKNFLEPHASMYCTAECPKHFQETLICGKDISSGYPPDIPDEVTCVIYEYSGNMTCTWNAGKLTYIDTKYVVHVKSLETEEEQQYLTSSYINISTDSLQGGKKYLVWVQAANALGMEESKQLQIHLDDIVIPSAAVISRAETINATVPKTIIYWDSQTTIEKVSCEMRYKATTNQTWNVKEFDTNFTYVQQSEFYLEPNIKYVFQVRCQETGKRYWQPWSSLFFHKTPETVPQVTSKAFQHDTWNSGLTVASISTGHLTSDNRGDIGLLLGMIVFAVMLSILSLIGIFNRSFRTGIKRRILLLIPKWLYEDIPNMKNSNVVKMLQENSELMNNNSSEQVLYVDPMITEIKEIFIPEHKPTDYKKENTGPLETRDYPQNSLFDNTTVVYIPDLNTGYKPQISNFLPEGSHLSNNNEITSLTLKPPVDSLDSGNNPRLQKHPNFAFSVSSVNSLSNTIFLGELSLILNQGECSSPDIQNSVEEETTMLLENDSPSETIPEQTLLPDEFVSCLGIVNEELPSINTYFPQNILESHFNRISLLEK

Row | EPSA [1] | pIC50 [2] | SMILES
1 | 205 A^2 | < 5.13 | CC(=O)N(C)CCCC[C@@H]1NC(=O)[C@H](C)NC(=O)[C@H]([C@@H](C)O)NC(=O)[C@H](CC(=O)N(C)C)NC(=O)[C@@H](NC(=O)CCOCCOCC[N+](C)(C)C)C(C)(C)SSC(C)(C)[C@@H](C(=O)N[C@@H](Cc2ccc(OCCCCC[N+](C)(C)C)cc2)C(=O)N[C@@H](Cc2ccc3ccccc3c2)C(=O)NC2(C(=O)N[C@@H](CCCCN(C)C(C)=O)C(=O)N[C@@H](CC(N)=O)C(=O)N[C@@H](Cc3cccnc3)C(=O)N(C)CC(=O)N(C)C)CCOCC2)NC1=O [compound 512, cPEG3aCO-Pen(3)-N(N(Me)2)-T-A-K(NMeAc)-Pen(3)-TMAPF-2Nal-THP-K(NMeAc)-N-3Pya-Sar-CONMe2] ({Me3N+(CH2)2O(CH2)2O(CH2)2CO}-[Pen]D(NMe2)TA[Lys(Me)](Ac)[Pen]Y(X3)[2Nal][Thp][Lys(Me)](Ac)N[3Pal][Sar]-NMe2; disulfide 1-6)
2 | 197 A^2 | 8.42 | CC(=O)NCCCC[C@@H]1NC(=O)[C@H](Cc2c[nH]c3c(-c4cccc(NC(C)=O)c4)cccc23)NC(=O)[C@H]([C@@H](C)O)NC(=O)[C@H](CC(N)=O)NC(=O)[C@@H](NC(C)=O)C(C)(C)SSC(C)(C)[C@@H](C(=O)N[C@@H](Cc2ccc(OCCNC(=N)N)cc2)C(=O)N[C@@H](Cc2ccc3ccccc3c2)C(=O)NC2(C(=O)N[C@@H](CCCCN(C)C(C)=O)C(=O)N[C@@H](CC(N)=O)C(=O)N[C@@H](Cc3cccnc3)C(=O)N(C)CC(N)=O)CCOCC2)NC1=O [compound 515, MeCO-Pen(3)-N-T-7(3NAcPh)W-K(Ac)-Pen(3)-AEF(G)-2Nal-THP-K(NMeAc)-N-3Pya-Sar-CONH2]
3 | 237 A^2 | 7.30 | CC(=O)NCCCC[C@@H]1NC(=O)[C@H](Cc2c[nH]c3ccccc23)NC(=O)[C@H]([C@@H](C)O)NC(=O)[C@H](CC(N)=O)NC(=O)[C@@H](NC(=O)[C@H](CCCNC(=N)N)NC(=O)CCOCCOCC[N+](C)(C)C)CCSC[C@@](C)(C(=O)N[C@@H](Cc2ccc(OCCCCC[N+](C)(C)C)cc2)C(=O)N[C@@H](Cc2ccc3ccccc3c2)C(=O)NC2(C(=O)N[C@@H](CCC(=O)O)C(=O)N[C@@H](CC(N)=O)C(=O)N[C@@H](Cc3cccnc3)C(=O)N(C)CC(N)=O)CCOCC2)NC1=O [compound 516, cPEG3aCO-r-Abu(1)-N-T-W-K(Ac)-aMeC(1)-TMAPF-2Nal-THP-E-N-3Pya-Sar-CONH2] ({Me3N+(CH2)2O(CH2)2O(CH2)2CO}-R[Abu(4-yl)]NTWK(Ac)[αMeC]Y(X3)[2Nal][Thp]EN[3Pal][Sar]-NH2; thioether 2-7)
4 | 241 A^2 | 7.29 | CC(=O)NCCCC[C@@H]1NC(=O)[C@H](Cc2c[nH]c3ccccc23)NC(=O)[C@H]([C@@H](C)O)NC(=O)[C@H](CC(N)=O)NC(=O)[C@@H](NC(=O)[C@H](CCCC[N+](C)(C)C)NC(C)=O)CCSC[C@@](C)(C(=O)N[C@@H](Cc2ccc(OCCCCC[N+](C)(C)C)cc2)C(=O)N[C@@H](Cc2ccc3ccccc3c2)C(=O)NC2(C(=O)N[C@@H](CCCCNC(C)=O)C(=O)N[C@@H](CC(N)=O)C(=O)N[C@@H](Cc3cccnc3)C(=O)N(C)CC(N)=O)CCOCC2)NC1=O [compound 517, MeCO-k(Me)3-Abu(1)-N-T-W-K(Ac)-aMeC(1)-TMAPF-2Nal-THP-K(Ac)-N-3Pya-Sar-CONH2] (Ac-[Lys(Me3)][Abu(4-yl)]NTWK(Ac)[αMeC]Y(X3)[2Nal][Thp]K(Ac)N[3Pal][Sar]-NH2; thioether 2-7)
5 | 230 A^2 | 7.74 | CC(=O)NCCCC[C@@H]1NC(=O)[C@H](Cc2c[nH]c3ccccc23)NC(=O)[C@H]([C@@H](C)O)NC(=O)[C@H](CC(N)=O)NC(=O)[C@@H](NC(=O)[C@@H](CCCNC(=N)N)NC(=O)CCOCCOCC[N+](C)(C)C)CCSC[C@@](C)(C(=O)N[C@@H](Cc2ccc(OCCCCC[N+](C)(C)C)cc2)C(=O)N[C@@H](Cc2ccc3ccccc3c2)C(=O)NC2(C(=O)N[C@@H](CCCCNC(C)=O)C(=O)N[C@@H](CC(N)=O)C(=O)N[C@@H](Cc3cccnc3)C(=O)N(C)CC(N)=O)CCOCC2)NC1=O [compound 518, cPEG3aCO-r-Abu(1)-N-T-W-K(Ac)-aMeC(1)-TMAPF-2Nal-THP-K(Ac-N-3Pya-Sar-CONH2] ({Me3N+(CH2)2O(CH2)2O(CH2)2CO}-[dR][Abu(4-yl)]NTWK(Ac)[αMeC]Y(X3)[2Nal][Thp]K(Ac)N[3Pal][Sar]-NH2; thioether 2-7)
6 | 186 A^2 | 8.74 | CC(=O)NCCCC[C@@H]1NC(=O)[C@H](Cc2c[nH]c3c(-c4cccc(NC(C)=O)c4)cccc23)NC(=O)[C@H]([C@@H](C)O)NC(=O)[C@H](CC(N)=O)NC(=O)[C@@H](NC(=O)CCOCCOCC[N+](C)(C)C)C(C)(C)SSC(C)(C)[C@@H](C(=O)N[C@@H](Cc2ccc(OCCNC(=N)N)cc2)C(=O)N[C@@H](Cc2ccc3ccccc3c2)C(=O)NC2(C(=O)N[C@@H](CCCCN(C)C(C)=O)C(=O)N[C@@H](CC(N)=O)C(=O)N[C@@H](Cc3cncc(C)c3)C(=O)N(C)CC(N)=O)CCOCC2)NC1=O [compound 519, cPEG3aCO-Pen(3)-N-T-7(3NAcPh)W-K(Ac)-Pen(3)-AEF(G)-2Nal-THP-K(NMeAc)-N-3Pya-Sar-CONH2]
7 | 176 A^2 | 8.80 | CC(=O)NCCCC[C@@H]1NC(=O)[C@H](Cc2c[nH]c3c(C)cccc23)NC(=O)[C@H]([C@@H](C)O)NC(=O)[C@H](CC(N)=O)NC(=O)[C@@H](NC(=O)CCOCCOCC[N+](C)(C)C)C(C)(C)SSC(C)(C)[C@@H](C(=O)N[C@@H](Cc2ccc(-n3cc(CCN)nn3)cc2)C(=O)N[C@@H](Cc2ccc3ccccc3c2)C(=O)NC2(C(=O)N[C@@H](CCCCNC(C)=O)C(=O)N[C@@H](CC(N)=O)C(=O)N[C@@H](Cc3cccnc3)C(=O)N(C)CC(N)=O)CCOCC2)NC1=O [compound 522, cPEG3aCO-Pen(3)-N-T-7MeW-K(Ac)-Pen(3)-F(4TzlAme2)-2Nal-THP-K(Ac)-N-3Pya-Sar-CONH2] ({Me3N+(CH2)2O(CH2)2O(CH2)2CO}-[Pen]NT[Trp(7-Me)]K(Ac)[Pen][X39][2Nal][Thp]K(Ac)N[3Pal][Sar]-NH2; disulfide 1-6)
8 | 154 A^2 | 8.28 | CC(=O)N(C)CCCC[C@@H]1NC(=O)[C@H](Cc2c[nH]c3c(C)cccc23)NC(=O)[C@H]([C@@H](C)O)NC(=O)[C@H](CC(=O)N(C)C)NC(=O)[C@@H](NC(=O)CCOCCOCC[N+](C)(C)C)CCSC[C@@H](C(=O)N[C@@H](Cc2ccc(OCCCCC[N+](C)(C)C)cc2)C(=O)N[C@@H](Cc2ccc3ccccc3c2)C(=O)NC2(C(=O)N[C@@H](CCCCN(C)C(C)=O)C(=O)N[C@@H](CC(N)=O)C(=O)N[C@@H](Cc3cccnc3)C(=O)N(C)CC(=O)N(C)C)CCOCC2)NC1=O [compound 523, cPEG3aCO-Abu(1)-N(N(Me)2)-T-7MeW-K(NMeAc)-C(1)-TMAPF-2Nal-THP-K(NMeAc)-N-3Pya-Sar-CON(Me)2] ({Me3N+(CH2)2O(CH2)2O(CH2)2CO}-[Abu(4-yl)]D(NMe2)T[Trp(7-Me)][Lys(Me)](Ac)CY(X3)[2Nal][Thp][Lys(Me)](Ac)N[3Pal][Sar]-NMe2; thioether 1-6)
9 | 198 A^2 | 7.27 | CC(=O)NCCCC[C@@H]1NC(=O)[C@H](Cc2c[nH]c3c(C)cccc23)NC(=O)[C@H]([C@@H](C)O)NC(=O)[C@H](CC(N)=O)NC(=O)[C@@H](NC(=O)COc2ccc(-c3ccc(F)cc3F)cc2C(=O)O)C(C)(C)SSC(C)(C)[C@@H](C(=O)N[C@@H](Cc2ccc(OCCCCC[N+](C)(C)C)cc2)C(=O)N[C@@H](Cc2ccc3ccccc3c2)C(=O)NC2(C(=O)N[C@@H](CCCCNC(=O)CCCc3ccc(I)cc3)C(=O)N[C@@H](CC(N)=O)C(=O)N[C@@H](Cc3cccnc3)C(=O)N(C)CC(N)=O)CCOCC2)NC1=O [compound 524, DFNCO-Pen(3)-N-T-7MeW-K(Ac)-Pen(3)-TMAPF-2Nal-THP-K(IPB)-N-3Pya-Sar-CONH2]
10 | 195 A^2 | 7.29 | CC(=O)NCCCC[C@@H]1NC(=O)[C@H](Cc2c[nH]c3c(C)cccc23)NC(=O)[C@H]([C@@H](C)O)NC(=O)[C@H](CC(N)=O)NC(=O)[C@@H](NC(=O)CCCc2ccc(I)cc2)C(C)(C)SSC(C)(C)[C@@H](C(=O)N[C@@H](Cc2ccc(OCCCCC[N+](C)(C)C)cc2)C(=O)N[C@@H](Cc2ccc3ccccc3c2)C(=O)NC2(C(=O)N[C@@H](CCCCNC(=O)COc3ccc(-c4ccc(F)cc4F)cc3C(=O)O)C(=O)N[C@@H](CC(N)=O)C(=O)N[C@@H](Cc3cccnc3)C(=O)N(C)CC(N)=O)CCOCC2)NC1=O [compound 525, IPBCO-Pen(3)-N-T-7MeW-K(Ac)-Pen(3)-TMAPF-2Nal-THP-K(DFN)-N-3Pya-Sar-CONH2]
11 | 184 A^2 | 8.21 | CC(=O)NCCCC[C@@H]1NC(=O)[C@H](Cc2c[nH]c3c(C)cccc23)NC(=O)[C@H]([C@@H](C)O)NC(=O)[C@H](CC(N)=O)NC(=O)[C@@H](NC(C)=O)C(C)(C)SSC(C)(C)[C@@H](C(=O)N[C@@H](Cc2ccc(OCCCCC[N+](C)(C)C)cc2)C(=O)N[C@@H](Cc2ccc3ccccc3c2)C(=O)NC2(C(=O)N[C@@H](CCCCNC(=O)COc3ccc(-c4ccc(F)cc4F)cc3C(=O)O)C(=O)N[C@@H](CC(N)=O)C(=O)N[C@@H](Cc3cccnc3)C(=O)N(C)CC(N)=O)CCOCC2)NC1=O [compound 526, MeCO-Pen(3)-N-T-7MeW-K(Ac)-Pen(3)-TMAPF-2Nal-THP-K(DFN)-N-3Pya-Sar-CONH2]
